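Values below derive from 48-hour exposures of cells grown in 96-well plates, with endpoints linearly interpolated between the two concentrations bracketing the appropriate inhibition level. TGI: total growth inhibition.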
Key:
Test in all cases: inhibition of tumour cell growth, NCI panel, 48 h
SF-268 CNS = system: SF-268 CNS
OVCAR-8 ovarian = system: OVCAR-8 ovarian
MDA-MB-231 breast = system: MDA-MB-231 breast
NCI-H23 lung = system: NCI-H23 lung
CCRF-CEM leukemia = system: CCRF-CEM leukemia
OVCAR-3 ovarian = system: OVCAR-3 ovarian
UO-31 renal = system: UO-31 renal
786-0 renal = system: 786-0 renal
NCI-H460 lung = system: NCI-H460 lung
MOLT-4 leukemia = system: MOLT-4 leukemia
SNB-75 CNS = system: SNB-75 CNS
SF-295 CNS = system: SF-295 CNS
SK-MEL-5 melanoma = system: SK-MEL-5 melanoma
SK-OV-3 ovarian = system: SK-OV-3 ovarian
NCI/ADR-RES ovarian = system: NCI/ADR-RES ovarian
COLO 205 colon = system: COLO 205 colon
SR leukemia = system: SR leukemia
BT-549 breast = system: BT-549 breast

Compound	TGI (SF-268 CNS)	TGI (OVCAR-8 ovarian)	TGI (MDA-MB-231 breast)	TGI (NCI-H23 lung)	TGI (CCRF-CEM leukemia)	TGI (OVCAR-3 ovarian)	TGI (UO-31 renal)	TGI (786-0 renal)	TGI (NCI-H460 lung)	TGI (MOLT-4 leukemia)	TGI (SNB-75 CNS)	TGI (SF-295 CNS)	TGI (SK-MEL-5 melanoma)	TGI (SK-OV-3 ovarian)	TGI (NCI/ADR-RES ovarian)	TGI (COLO 205 colon)	TGI (SR leukemia)	TGI (BT-549 breast)
COC(=O)C1=C(O)C(C(=O)OC)[C@@]2(O)[C@@H](C(=O)OC)C(c3ccc(OC(=O)/C(=C/c4ccccc4)c4ccccc4)cc3)C[C@@H]1[C@@H]2C(=O)OC (stereo not given in full)	> 100 µM	> 100 µM	> 100 µM	> 100 µM	> 100 µM	> 100 µM	40.4 µM	> 100 µM	> 100 µM	> 100 µM	35.6 µM	> 100 µM	> 100 µM	> 100 µM	> 100 µM	> 100 µM	> 100 µM	> 100 µM
Cc1ccc(-c2n[nH]c(=O)n2N)cc1	> 100 µM	> 100 µM	> 100 µM	> 100 µM	> 100 µM	> 100 µM	> 100 µM	> 100 µM	> 100 µM	> 100 µM	> 100 µM	> 100 µM	> 100 µM	> 100 µM	> 100 µM	> 100 µM	> 100 µM	> 100 µM
Nc1nonc1-c1noc(-c2nonc2N)[n+]1[O-]	> 100 µM		> 100 µM	> 100 µM	32.8 µM		> 100 µM	> 100 µM	> 100 µM	> 100 µM		> 100 µM	> 100 µM	> 100 µM	> 100 µM		> 100 µM	> 100 µM
O=C1c2ccccc2C(=O)c2[nH]c(=O)c(/C=N/Nc3ccc([N+](=O)[O-])cc3)nc21	29.6 µM	> 50.7 µM	> 51.6 µM	3.79 µM	> 100 µM	> 25.3 µM	> 48 µM	> 62.2 µM	4.18 µM	> 78.6 µM		12.4 µM	2.82 µM	> 47.3 µM	> 61.6 µM	75.6 µM	> 65.2 µM	20.4 µM
c1ccc(N=C2SC(c3ccccc3)CN2C23CC4CC(CC(C4)C2)C3)cc1 (stereo not given)	> 100 µM	> 100 µM	> 100 µM	> 100 µM	> 100 µM	> 100 µM	> 100 µM	> 100 µM	> 100 µM	> 100 µM	> 100 µM	> 100 µM	> 100 µM		> 100 µM	> 100 µM	> 100 µM	> 100 µM
O=C(c1cccs1)N(C(=S)OCc1ccccn1)c1ccccc1	> 100 µM	> 100 µM	> 100 µM	> 100 µM	> 100 µM	> 100 µM	96.7 µM	> 100 µM	> 100 µM	> 100 µM		> 100 µM	> 100 µM	> 100 µM	> 100 µM	> 100 µM	> 100 µM	> 100 µM
COc1ccc(C(F)(F)F)cc1NC(=O)O/N=C(/Cl)C(C)C	53.7 µM	41.1 µM	37.4 µM	40.2 µM	31.9 µM	34.8 µM	33.3 µM	31.8 µM	> 64.2 µM	6.2 µM	44.4 µM	> 66.3 µM	25.5 µM	> 67.3 µM	56.5 µM	4.1 µM		41.3 µM
CCCCCCCCCCCCCC/C(=C/OCC[N+](C)(C)C)OC(C)=O (tested in a mixture with another compound)	5.09 µM	4.15 µM	4.83 µM	7.65 µM	3.67 µM	8.21 µM	30 µM	2.34 µM			7.3 µM	5.34 µM	4.92 µM	17.1 µM	44.2 µM	5.08 µM	4.57 µM	5.85 µM
COc1cc(C(CN)N(C)C)cc(OC)c1OC (stereo not given)	> 100 µM	> 100 µM	> 100 µM	> 100 µM	> 100 µM	> 100 µM	> 100 µM	> 100 µM	> 100 µM	> 100 µM		> 100 µM	> 100 µM	> 100 µM	> 100 µM	> 100 µM	> 100 µM	> 100 µM
COc1ccc(-n2c(C)nc3ccc(N=Cc4ccccc4)cc3c2=O)cc1	> 100 µM	> 100 µM	> 100 µM	> 100 µM		> 100 µM	> 100 µM	> 100 µM	> 100 µM	> 100 µM	> 100 µM	> 100 µM	> 100 µM		> 100 µM	> 100 µM	> 100 µM	> 100 µM
C/C(=N/NC(=S)Nc1cccc(Cl)c1)c1cccc(/C(C)=N\NC(=S)Nc2cccc(Cl)c2)n1	> 47.8 µM	> 37.5 µM	> 100 µM	> 38.5 µM	16.2 µM		> 20.9 µM	> 41.7 µM	> 44.7 µM	8.67 µM	40.8 µM	> 30 µM	35 µM	> 55.3 µM	> 100 µM	> 100 µM	4.56 µM	> 100 µM
N#CC1(C#N)C(c2ccccc2)NC23CCCCC2C1(C#N)C(=O)N3 (stereo not given)	> 100 µM	> 100 µM	> 100 µM	> 100 µM	> 100 µM	> 100 µM	> 100 µM	> 100 µM	> 100 µM	> 100 µM	> 100 µM	> 100 µM		> 100 µM	> 100 µM	> 100 µM	> 100 µM	> 100 µM
Cc1nc(SCC(=O)Nc2ccccc2)c2sc(=S)n(-c3ccccc3)c2n1	> 10 µM	> 10 µM	> 10 µM	> 10 µM	> 10 µM	> 10 µM		> 10 µM	> 10 µM	> 10 µM	> 10 µM	> 10 µM	> 10 µM	> 10 µM	> 10 µM	> 10 µM	> 10 µM	> 10 µM
N#C/C(=C\N1CCNC1=S)C(=O)c1ccc2ccccc2c1	> 100 µM	> 100 µM	> 100 µM	> 100 µM		> 100 µM	> 100 µM	> 100 µM	> 100 µM	> 100 µM	> 100 µM	> 100 µM	> 100 µM	> 100 µM	> 100 µM	> 100 µM	> 100 µM	> 100 µM
